Laboratory results taken from US11572369B2, “Bicyclic pyridine compositions and methods of using the same for cancer therapy” (UNIVERSITY OF SOUTH CAROLINA, priority 2019, dated 2023).

Legend:
Test in all cases: KINOMEscan
Type in all cases: binding
Conditions in all cases: 2000 nM
[1] = biological target: T1, PIK3CA(M1043I) (Homo sapiens, UniProt P42336, M1043I)
T1 construct: DNA label; purchased DiscoveRx (KINOMEscan scanMAX panel)

[2] = biological target: T2, RSK2(Kin.Dom.1-N-terminal) (Homo sapiens, UniProt P51812)
T2 construct: RSK2(Kin.Dom.1); purchased DiscoveRx (KINOMEscan scanMAX panel)

[3] = biological target: T3, TNIK (Homo sapiens, UniProt Q9UKE5)
T3 construct: DNA label (qPCR read-out); purchased KINOMEscan (DiscoveRx) ScanMAX panel

[4] = biological target: T4, MST3 (Homo sapiens, UniProt Q9Y6E0)
T4 construct: DNA label (for qPCR read-out); purchased KINOMEscan scanMAX panel (DiscoveRx)

[5] = biological target: T5, PKNB(M.tuberculosis) (Mycobacterium tuberculosis, UniProt P9WI81)
T5 construct: purchased DiscoveRx (KINOMEscan scanMAX panel)

[6] = biological target: T6, EGFR (Homo sapiens, UniProt P00533)
T6 construct: purchased DiscoveRx (KINOMEscan scanMAX panel)

[7] = biological target: T7, KIT (Homo sapiens, UniProt P10721)
T7 construct: DNA label (for qPCR read-out); purchased DiscoveRx (KINOMEscan scanMAX panel)
T7 sequence (P10721 26-976): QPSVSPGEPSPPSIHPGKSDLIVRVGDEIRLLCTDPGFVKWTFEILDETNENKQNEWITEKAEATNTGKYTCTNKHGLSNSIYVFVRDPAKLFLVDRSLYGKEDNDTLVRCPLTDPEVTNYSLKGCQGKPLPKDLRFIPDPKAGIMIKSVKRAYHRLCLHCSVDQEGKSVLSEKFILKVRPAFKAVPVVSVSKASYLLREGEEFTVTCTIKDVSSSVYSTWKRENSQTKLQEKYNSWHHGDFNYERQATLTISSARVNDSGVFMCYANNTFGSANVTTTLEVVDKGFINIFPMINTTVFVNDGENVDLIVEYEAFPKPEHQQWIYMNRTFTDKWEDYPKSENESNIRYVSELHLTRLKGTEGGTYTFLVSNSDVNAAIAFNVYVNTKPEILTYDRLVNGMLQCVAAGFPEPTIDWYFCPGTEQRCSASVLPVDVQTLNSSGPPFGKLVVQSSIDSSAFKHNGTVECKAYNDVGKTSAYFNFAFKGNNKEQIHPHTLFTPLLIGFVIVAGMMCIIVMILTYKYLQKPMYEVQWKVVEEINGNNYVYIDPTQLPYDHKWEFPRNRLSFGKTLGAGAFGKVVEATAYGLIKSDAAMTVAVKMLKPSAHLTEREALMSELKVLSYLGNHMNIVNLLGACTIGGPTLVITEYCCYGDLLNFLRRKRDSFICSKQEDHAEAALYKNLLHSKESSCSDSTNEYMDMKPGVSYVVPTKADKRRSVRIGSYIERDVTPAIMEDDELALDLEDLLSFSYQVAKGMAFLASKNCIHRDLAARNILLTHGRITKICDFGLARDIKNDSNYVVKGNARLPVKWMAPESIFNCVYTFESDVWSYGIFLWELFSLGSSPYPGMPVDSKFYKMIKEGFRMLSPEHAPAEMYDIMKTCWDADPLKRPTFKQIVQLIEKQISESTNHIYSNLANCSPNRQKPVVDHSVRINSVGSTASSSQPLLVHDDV

[8] = biological target: T8, CAMKK2 (Homo sapiens, UniProt Q96RR4)
T8 construct: DNA label (qPCR read-out); purchased KINOMEscan (ScanMAX panel service)
T8 sequence (Q96RR4 whole entry): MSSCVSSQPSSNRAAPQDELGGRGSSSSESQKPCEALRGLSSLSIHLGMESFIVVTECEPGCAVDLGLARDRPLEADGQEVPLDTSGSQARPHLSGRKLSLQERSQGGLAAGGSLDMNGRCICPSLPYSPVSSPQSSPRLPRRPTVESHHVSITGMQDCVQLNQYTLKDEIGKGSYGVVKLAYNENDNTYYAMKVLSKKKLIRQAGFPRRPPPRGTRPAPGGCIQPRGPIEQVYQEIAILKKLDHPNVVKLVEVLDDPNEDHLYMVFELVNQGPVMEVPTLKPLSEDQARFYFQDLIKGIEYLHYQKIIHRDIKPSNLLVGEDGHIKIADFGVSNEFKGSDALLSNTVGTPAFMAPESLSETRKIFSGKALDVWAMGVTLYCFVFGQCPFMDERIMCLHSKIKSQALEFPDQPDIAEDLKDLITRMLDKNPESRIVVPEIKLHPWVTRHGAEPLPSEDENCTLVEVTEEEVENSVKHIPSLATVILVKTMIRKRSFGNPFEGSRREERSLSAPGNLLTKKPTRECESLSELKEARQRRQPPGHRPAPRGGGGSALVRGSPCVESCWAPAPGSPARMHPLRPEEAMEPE

[9] = biological target: T9, RIOK1 (Homo sapiens, UniProt Q9BRS2)
T9 construct: DNA label (qPCR read-out); purchased DiscoveRx (KINOMEscan ScanMAX panel)

[10] = biological target: T10, INSRR (Homo sapiens, UniProt P14616)
T10 construct: DNA label (qPCR read-out); purchased KINOMEscan (DiscoveRx) ScanMAX panel

[11] = biological target: T11, SNARK (Homo sapiens, UniProt Q9H093)
T11 construct: purchased KINOMEscan (DiscoveRx)

[12] = biological target: T12, EGFR(L858R,T790M) (Homo sapiens, UniProt P00533, L858R/T790M)
T12 construct: purchased DiscoveRx (KINOMEscan scanMAX panel)

[13] = biological target: T13, RSK3(Kin.Dom.2-C-terminal) (Homo sapiens, UniProt Q15349)
T13 construct: RSK3(Kin.Dom.2); purchased DiscoveRx (KINOMEscan scanMAX panel)

[14] = biological target: T14, BRAF (Homo sapiens, UniProt P15056)
T14 construct: DNA label (for qPCR read-out); purchased KINOMEscan scanMAX panel (DiscoveRx)

[15] = biological target: T15, ERK2 (Homo sapiens, UniProt P28482)
T15 construct: DNA label (qPCR read-out); purchased DiscoveRx (KINOMEscan ScanMAX panel)
T15 sequence (P28482 whole entry): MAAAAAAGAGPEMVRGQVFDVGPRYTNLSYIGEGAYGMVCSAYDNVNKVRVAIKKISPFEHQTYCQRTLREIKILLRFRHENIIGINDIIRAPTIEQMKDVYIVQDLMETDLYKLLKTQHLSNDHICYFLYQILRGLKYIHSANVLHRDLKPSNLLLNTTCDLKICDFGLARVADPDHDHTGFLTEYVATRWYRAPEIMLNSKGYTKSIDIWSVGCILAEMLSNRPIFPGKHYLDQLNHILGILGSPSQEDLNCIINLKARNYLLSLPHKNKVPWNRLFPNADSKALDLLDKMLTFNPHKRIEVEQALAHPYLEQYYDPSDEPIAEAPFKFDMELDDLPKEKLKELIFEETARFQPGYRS

[16] = biological target: T16, EGFR(L747-E749del, A750P) (Homo sapiens, UniProt P00533, A750P/DEL747-749)
T16 construct: purchased DiscoveRx (KINOMEscan scanMAX panel)

[17] = biological target: T17, PFTAIRE2 (Homo sapiens, UniProt Q96Q40)
T17 construct: DNA label (for qPCR read-out); purchased DiscoveRx (KINOMEscan scanMAX service)

[18] = biological target: T18, ERBB4 (Homo sapiens, UniProt Q15303)
T18 construct: DNA label (qPCR read-out); purchased DiscoveRx (KINOMEscan ScanMAX panel)

[19] = biological target: T19, JAK1(JH2domain-pseudokinase) (Homo sapiens, UniProt P23458)
T19 construct: JAK1(JH2domain-pseudokinase); DNA label (for qPCR read-out); purchased DiscoveRx (KINOMEscan scanMAX panel)
T19 sequence (P23458 583-855 limits assumed): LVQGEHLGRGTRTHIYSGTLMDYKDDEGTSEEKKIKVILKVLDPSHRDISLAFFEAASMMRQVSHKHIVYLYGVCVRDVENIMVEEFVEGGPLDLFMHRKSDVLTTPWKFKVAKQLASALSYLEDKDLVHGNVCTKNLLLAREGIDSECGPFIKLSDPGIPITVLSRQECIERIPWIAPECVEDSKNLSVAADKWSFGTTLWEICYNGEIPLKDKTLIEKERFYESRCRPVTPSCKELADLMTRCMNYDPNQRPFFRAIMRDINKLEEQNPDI

[20] = biological target: T20, LRRK2(G2019S) (Homo sapiens, UniProt Q5S007, G2019S)
T20 construct: purchased KINOMEscan (DiscoveRx) panel service

[21] = biological target: T21, ERK3 (Homo sapiens, UniProt Q16659)
T21 construct: DNA label (qPCR read-out); purchased DiscoveRx (KINOMEscan ScanMAX panel)

[22] = biological target: T22, CDKL2 (Homo sapiens, UniProt Q92772)
T22 construct: DNA label (for qPCR read-out); purchased DiscoveRx (KINOMEscan scanMAX service)
T22 sequence (Q92772 whole entry): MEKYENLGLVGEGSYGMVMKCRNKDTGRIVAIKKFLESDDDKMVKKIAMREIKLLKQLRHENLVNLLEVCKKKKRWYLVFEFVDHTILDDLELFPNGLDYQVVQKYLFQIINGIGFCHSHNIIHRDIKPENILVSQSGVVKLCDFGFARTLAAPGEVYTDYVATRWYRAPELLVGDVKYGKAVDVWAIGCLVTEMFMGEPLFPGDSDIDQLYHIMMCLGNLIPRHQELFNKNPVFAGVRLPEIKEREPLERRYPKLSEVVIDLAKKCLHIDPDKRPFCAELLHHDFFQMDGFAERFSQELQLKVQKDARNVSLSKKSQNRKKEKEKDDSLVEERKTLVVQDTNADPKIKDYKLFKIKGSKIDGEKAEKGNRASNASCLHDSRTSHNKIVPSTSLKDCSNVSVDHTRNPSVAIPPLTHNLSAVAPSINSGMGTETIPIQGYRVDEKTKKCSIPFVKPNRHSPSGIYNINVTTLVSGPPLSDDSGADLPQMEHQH

[23] = biological target: T23, MEK3 (Homo sapiens, UniProt P46734)
T23 construct: purchased DiscoveRx (KINOMEscan scanMAX panel, service)
T23 sequence (P46734 whole entry): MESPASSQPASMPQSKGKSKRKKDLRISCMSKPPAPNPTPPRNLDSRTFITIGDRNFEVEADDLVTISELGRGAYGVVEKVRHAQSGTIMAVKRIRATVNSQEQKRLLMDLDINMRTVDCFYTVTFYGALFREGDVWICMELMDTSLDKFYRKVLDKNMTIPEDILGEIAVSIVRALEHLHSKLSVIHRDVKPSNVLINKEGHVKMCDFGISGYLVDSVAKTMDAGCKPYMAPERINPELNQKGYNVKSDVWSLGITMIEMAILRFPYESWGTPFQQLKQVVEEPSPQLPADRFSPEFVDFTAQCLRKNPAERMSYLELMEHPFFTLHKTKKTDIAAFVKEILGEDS

[24] = biological target: T24, QSK (Homo sapiens, UniProt Q9Y2K2)
T24 construct: purchased DiscoveRx (KINOMEscan scanMAX panel)

[25] = biological target: T25, GRK7 (Homo sapiens, UniProt Q8WTQ7)
T25 construct: DNA label (for qPCR read-out); purchased DiscoveRx (KINOMEscan scanMAX panel, contract assay)

[26] = biological target: T26, MYLK4 (Homo sapiens, UniProt Q86YV6)
T26 construct: DNA label (for qPCR read-out); purchased KINOMEscan scanMAX panel (DiscoveRx)

[27] = biological target: T27, RSK3(Kin.Dom.1-N-terminal) (Homo sapiens, UniProt Q15349)
T27 construct: RSK3(Kin.Dom.1); purchased DiscoveRx (KINOMEscan scanMAX panel)
T27 sequence (Q15349 59-318 limits assumed): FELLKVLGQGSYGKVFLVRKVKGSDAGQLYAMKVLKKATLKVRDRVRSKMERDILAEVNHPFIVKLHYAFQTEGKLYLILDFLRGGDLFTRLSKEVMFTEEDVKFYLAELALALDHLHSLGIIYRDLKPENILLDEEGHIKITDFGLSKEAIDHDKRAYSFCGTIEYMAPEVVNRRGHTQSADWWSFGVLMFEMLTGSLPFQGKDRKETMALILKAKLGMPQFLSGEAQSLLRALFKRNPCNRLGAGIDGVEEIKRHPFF

[28] = biological target: T28, PDGFRB (Homo sapiens, UniProt P09619)
T28 construct: DNA label (for qPCR read-out); purchased DiscoveRx (KINOMEscan scanMAX service)
T28 sequence (P09619 33-1106): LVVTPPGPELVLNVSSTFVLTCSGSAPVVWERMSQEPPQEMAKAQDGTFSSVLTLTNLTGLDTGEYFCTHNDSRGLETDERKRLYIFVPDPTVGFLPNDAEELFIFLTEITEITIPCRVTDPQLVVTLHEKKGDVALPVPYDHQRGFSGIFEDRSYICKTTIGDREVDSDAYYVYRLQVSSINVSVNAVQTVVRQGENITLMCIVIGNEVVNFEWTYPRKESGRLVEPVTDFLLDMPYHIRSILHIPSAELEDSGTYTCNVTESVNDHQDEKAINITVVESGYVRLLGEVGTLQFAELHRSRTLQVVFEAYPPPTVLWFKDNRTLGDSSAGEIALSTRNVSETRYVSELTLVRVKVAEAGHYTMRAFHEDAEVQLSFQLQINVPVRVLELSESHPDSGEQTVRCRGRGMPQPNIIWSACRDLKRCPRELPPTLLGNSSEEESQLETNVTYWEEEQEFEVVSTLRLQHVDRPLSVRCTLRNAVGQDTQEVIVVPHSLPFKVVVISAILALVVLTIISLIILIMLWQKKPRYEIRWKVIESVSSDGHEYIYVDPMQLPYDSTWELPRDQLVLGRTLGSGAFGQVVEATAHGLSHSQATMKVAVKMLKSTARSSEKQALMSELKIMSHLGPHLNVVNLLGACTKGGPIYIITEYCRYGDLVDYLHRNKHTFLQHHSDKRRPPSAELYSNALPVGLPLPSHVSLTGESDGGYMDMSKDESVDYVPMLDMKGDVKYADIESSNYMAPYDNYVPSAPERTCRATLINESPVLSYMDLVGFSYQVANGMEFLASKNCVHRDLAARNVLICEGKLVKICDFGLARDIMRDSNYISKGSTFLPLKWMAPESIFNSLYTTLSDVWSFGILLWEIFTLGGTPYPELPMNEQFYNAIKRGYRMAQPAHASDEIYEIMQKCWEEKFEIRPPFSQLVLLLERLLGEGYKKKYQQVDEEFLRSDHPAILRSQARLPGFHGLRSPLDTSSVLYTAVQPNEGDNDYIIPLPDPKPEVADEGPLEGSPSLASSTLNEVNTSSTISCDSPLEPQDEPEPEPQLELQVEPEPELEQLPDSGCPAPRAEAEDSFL

[29] = biological target: T29, CDK2 (Homo sapiens, UniProt P24941)
T29 construct: purchased DiscoverX (KINOMEscan service)

[30] = biological target: T30, TLK1 (Homo sapiens, UniProt Q9UKI8)
T30 construct: DNA label (qPCR read-out); purchased KINOMEscan (DiscoveRx) ScanMAX panel

[31] = biological target: T31, BMPR1B (Homo sapiens, UniProt O00238)
T31 construct: DNA label (for qPCR read-out); purchased KINOMEscan scanMAX panel (DiscoveRx)
T31 sequence (O00238 14-502): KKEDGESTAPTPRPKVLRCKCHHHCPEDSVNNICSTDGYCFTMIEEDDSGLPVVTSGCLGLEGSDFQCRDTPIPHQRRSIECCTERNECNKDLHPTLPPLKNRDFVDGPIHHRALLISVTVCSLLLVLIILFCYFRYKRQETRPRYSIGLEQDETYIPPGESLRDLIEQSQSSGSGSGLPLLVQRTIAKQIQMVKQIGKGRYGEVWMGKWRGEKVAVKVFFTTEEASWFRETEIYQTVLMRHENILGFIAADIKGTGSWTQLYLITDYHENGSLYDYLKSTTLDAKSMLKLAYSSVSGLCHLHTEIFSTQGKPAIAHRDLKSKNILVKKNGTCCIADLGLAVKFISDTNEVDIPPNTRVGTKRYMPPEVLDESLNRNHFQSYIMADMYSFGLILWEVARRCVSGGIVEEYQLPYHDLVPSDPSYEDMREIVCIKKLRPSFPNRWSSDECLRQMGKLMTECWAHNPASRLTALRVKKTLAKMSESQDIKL

[32] = biological target: T32, EGFR(G719S) (Homo sapiens, UniProt P00533, G719S)
T32 construct: purchased DiscoveRx (KINOMEscan scanMAX panel)

[33] = biological target: T33, ERK5 (Homo sapiens, UniProt Q13164)
T33 construct: DNA label (qPCR read-out); purchased DiscoveRx (KINOMEscan ScanMAX panel)

SMILES | % Ctrl [1] [% Ctrl] | % Ctrl [2] [% Ctrl] | % Ctrl [3] [% Ctrl] | % Ctrl [4] [% Ctrl] | % Ctrl [5] [% Ctrl] | % Ctrl [6] [% Ctrl] | % Ctrl [7] [% Ctrl] | % Ctrl [8] [% Ctrl] | % Ctrl [9] [% Ctrl] | % Ctrl [10] [% Ctrl] | % Ctrl [11] [% Ctrl] | % Ctrl [12] [% Ctrl] | % Ctrl [13] [% Ctrl] | % Ctrl [14] [% Ctrl] | % Ctrl [15] [% Ctrl] | % Ctrl [16] [% Ctrl] | % Ctrl [17] [% Ctrl] | % Ctrl [18] [% Ctrl] | % Ctrl [19] [% Ctrl] | % Ctrl [20] [% Ctrl] | also measured
[2H]C([2H])([2H])N(C(=O)c1ccc(N2CCCN(c3ccnc4sc(C(N)=O)c(N)c34)CC2)cc1)C([2H])([2H])[2H] [15u_D6, 3-amino-4-(4-(4-(bis(methyl-d3)carbamoyl)phenyl)-1,4-diazepan-1-yl)thieno[2,3-b]pyridine-2-carboxamide] | 95 | 64 | 91 | 84 | 90 | 87 | 95 | 87 | 100 | 89 | 78 | 87 | 89 | 96 | 92 | 100 | 80 | 100 | 89 | 76 | % Ctrl [21]: 94 % Ctrl; % Ctrl [22]: 96 % Ctrl; % Ctrl [23]: 47 % Ctrl; % Ctrl [24]: 97 % Ctrl; % Ctrl [25]: 92 % Ctrl; % Ctrl [26]: 94 % Ctrl; % Ctrl [27]: 77 % Ctrl; % Ctrl [28]: 93 % Ctrl; % Ctrl [29]: 99 % Ctrl; % Ctrl [30]: 85 % Ctrl; % Ctrl [31]: 62 % Ctrl; % Ctrl [32]: 100 % Ctrl; % Ctrl [33]: 98 % Ctrl
CN(C)C(=O)c1ccc(N2CCCN(c3ccnc4sc(C(N)=O)c(N)c34)CC2)cc1 [15u, 3-amino-4-(4-(4-(dimethylcarbamoyl)phenyl)-1,4-diazepan-1-yl)thieno[2,3-b]pyridine-2-carboxamide] | 96 | 90 | 100 | 97 | 100 | 100 | 95 | 100 | 100 | 99 | 100 | 100 | 100 | 100 | 78 | 99 | 100 | 85 | 89 | 90 | % Ctrl [21]: 88 % Ctrl; % Ctrl [22]: 86 % Ctrl; % Ctrl [23]: 68 % Ctrl; % Ctrl [24]: 89 % Ctrl; % Ctrl [25]: 100 % Ctrl; % Ctrl [26]: 100 % Ctrl; % Ctrl [27]: 99 % Ctrl; % Ctrl [28]: 100 % Ctrl; % Ctrl [29]: 100 % Ctrl; % Ctrl [30]: 97 % Ctrl; % Ctrl [31]: 100 % Ctrl; % Ctrl [32]: 100 % Ctrl; % Ctrl [33]: 59 % Ctrl
